In patent publication US20250282761A1, “SALT AND CRYSTAL FORMS OF AN EPIDERMAL GROWTH FACTOR RECEPTOR INHIBITOR” (Blueprint Medicines Corporation, priority 2022, published 2025):
Structures can show the parent of a compound that is named as a salt.

Experiment: Pharmacokinetics following oral (PO) administration to male beagle dogs
Format: in vivo
Conditions: single 30 mg/kg PO (free base equivalent)
Experimental: Male beagle dogs (3 in each treatment group) were administered orally 30 mg/kg of Compound (I) free base or mesylate salt of Compound (I) in a dose equivalent to 30 mg/kg of free base. The free base and the mesylate salt were suspended/dissolved in an appropriate volume of vehicle solution containing 0.5% hydroxypropyl methylcellulose (w/v) with 0.2% Tween 80 (v/v) in deionized water. The PO doses were administered into the stomach via syringe and gavage tube followed by a 5 mL water flush. Dose volumes were adjusted for the weight of the animal on the morning of dose administration. Blood samples were collected at 0, 0.5, 1, 2, 4, 6, 8, 10, 12, and 24 h postdose from an accessible vein with preference to the jugular vein. Blood samples were kept on ice until processing. All blood samples were centrifuged within 1 h of collection at 3200 RPM for 10 min at 5° C. Plasma samples were directly transferred into cluster tubes and stored at −20°±5° C. until shipment. […] Animals were fasted on the evening prior to dosing with food returned at 4 h postdose.

Row | appearance of animals at dose administration and blood collection time points | in vivo exposure (plasma concentration, FIG. 7) (0-24 h) | Compound
1 | appeared normal | – | C=CC(=O)Nc1ccc(F)c(Nc2nc(Nc3cnn(C)c3)ncc2-c2ccc(C(F)(F)F)cc2)c1 [Compound (I) free base, N-(4-fluoro-3-((2-((1-methyl-1H-pyrazol-4-yl)amino)-5-(4-(trifluoromethyl)phenyl)pyrimidin-4-yl)amino)phenyl)acrylamide]
2 | – | higher in vivo exposure | C=CC(=O)Nc1ccc(F)c(Nc2nc(Nc3cnn(C)c3)ncc2-c2ccc(C(F)(F)F)cc2)c1 [mesylate salt of Compound (I)]
